Tested on: Digitaria nuda
Assay: Test A: postemergence greenhouse control of Digitaria nuda, visual rating
Assay type: in vivo
Conditions: postemergence 3-4-leaf stage, 7 DAT, mean of 3 replicates
Description: Plastic pots (10-cm square) were filled to the rim with a sandy loam soil having pH of 6.1, 1.4% organic matter and a cation exchange capacity (CEC) of 5.7 milliequivalents per 100 grams (meq/100 g). The soil was tamped firm to a uniform level of 2.5 cm below the rim of each pot. A measured amount of seeds of Digitaria nuda were scattered on the soil surface. Seeded pots were covered with approximately 50 mL of the same planting soil and tamped. The pots were then placed in a greenhouse and watered thoroughly 2-3 times daily as needed. A balanced fertilizer solution was injected into the watering system to provide 218 ppm of nitrogen. Artificial lighting was used to supplement natural light to produce a 14 h photoperiod. Greenhouse temperatures were targeted for 28.8 ° C. in the day and 19.8 ° C. at night.
When the D. nuda plants reached the 3-4-leaf growth stage (8-12 cm height), the pots were sorted into test units for herbicide application. Treatments were replicated three times. The herbicides were diluted in a measured amount of water and then mixed using a magnetic stir bar for 10 minutes before aliquots were taken to make individual treatment solutions. Diuron was in the form of the DuPont product KARMEX, which is a wettable granule formulation containing 80 weight % active ingredient. Hexazinone was in the form of the DuPont product VELPAR DF, which is a wettable granule formulation containing 75 weight % active ingredient. A mixture of hexazinone and diuron in 11:39 weight ratio was in the form of the DuPont product VELPAR-K (VELPAR-K4) 60 WG, which is a wettable granule formulation containing 13.2 weight % hexazinone and 46.8 weight % diuron active ingredients. A mixture of hexazinone and diuron in 1:8 weight ratio was in the form of the DuPont product VELPAR-K8 (marketed in Brazil as ADVANCE Herbicide), which is a wettable granule formulation containing 6.7 weight % hexazinone and 53.3 weight % diuron active ingredients. Tembotrione was in the form of the Bayer product LAUDIS, which was a suspension concentrate formulation stated to contain […] tembotrione active ingredient and 22 g isoxadifen-ethyl (a herbicide safener) per liter. These products were applied alone and in combinations. Application rates of diuron and hexazinone were 1800 and 210 g ai ha^−1, respectively. The application rates of the VELPAR-K4 mixture of hexazinone and diuron (132 g a.i. hexazinone+468 g a.i. diuron/kg of formulated product) and VELPAR-K8 mixture of hexazinone and diuron (67 g a.i. hexazinone+533 g a.i. diuron/kg of formulated product) were 1200 and 1800 g total a.i. ha^−1, respectively. Application rates of tembotrione were 30, 60, 90 and 120 g a.i./ha. (“a.i.” means active ingredient.) The pots were then sprayed through a T-Jet 8002E nozzle using a stationary belt sprayer calibrated to deliver 281 L/ha at 276 kPa. Treatments were replicated three times.
The plants were returned to the greenhouse, and then control was visually evaluated relative to the control plants at 7 days after treatment (DAT). A numerical percent rating system was used to describe the response observed from each treatment on a scale of 0 to 100%, in which 0% indicates no response and 100% indicates plant death or near death. The reported results are the mean averages of the three replicates.
Colby's Equation was used to determine the herbicidal effects expected from the mixtures. […]

Row | Compound | % Control Observed (tembotrione 30 g a.i./ha (as LAUDIS)) [%] | % Control Observed (tembotrione 60 g a.i./ha (as LAUDIS)) [%] | % Control Observed (tembotrione 90 g a.i./ha (as LAUDIS)) [%] | % Control Observed (tembotrione 120 g a.i./ha (as LAUDIS)) [%] | % Control Observed (diuron 1800 g a.i./ha (as KARMEX)) [%]
1 | CS(=O)(=O)c1ccc(C(=O)C2C(=O)CCCC2=O)c(Cl)c1COCC(F)(F)F [Tembotrione, 2-[2-chloro-4-(methylsulfonyl)-3-[(2,2,2-trifluoroethoxy)methyl]-benzoyl]-1,3-cyclohexanedione] | 37 | 40 | 53 | 60 | –
2 | CN(C)C(=O)Nc1ccc(Cl)c(Cl)c1 [Diuron, N′(3,4-dichlorophenyl)-N,N-dimethylurea] | – | – | – | – | 20
